Results published in patent publication US20020183309A1, “Novel amines as histamine-3 receptor ligands and their therapeutic applications” (priority 2001, published 2002).
Read-outs that look alike come from different tables or passages of the source.

Target: T1, histamine-3 receptors (H3 receptor) (Rattus norvegicus, UniProt Q9QYN8)
T1 construct: from tissue; host or cells: male Sprague-Dawley rat brain cortex membranes
Assay: (3H)-N-α-methylhistamine binding to rat cortical membranes
Protocol: Briefly, male Sprague-Dawley rat brain cortices were homogenized (1 g tissue/10 mL buffer) in 50 mM Tris-HCl/5 mM EDTA containing protease inhibitor cocktail (Calbiochem) using a polytron set at 20,500 rpm. Homogenates were centrifuged for 20 minutes at 40,000×g. The supernatant was decanted, and pellets were weighed. The pellet was resuspended by polytron homogenization in 40 mL 50 mM Tris-HCl/5 mM EDTA with protease inhibitors and centrifuged for 20 minutes at 40,000×g. […] Rat cortical membranes (12 mg wet weight/tube) were incubated with (^3H)-N-α-methylhistamine (˜0.6 nM) with or without H3 receptor antagonists in a total incubation volume of 0.5 mL of 50 mM Tris-HCl/5 mM EDTA (pH 7.7). Test compounds were dissolved in DMSO to provide a 20 mM solution, serially diluted and then added to the incubation mixtures prior to initiating the incubation assay by addition of the membranes. Thioperamide (3 μM) was used to determine nonspecific binding. Binding incubations were conducted for 30 minutes at 25° C. and terminated by addition of 2 mL of ice cold 50 mM Tris-HCl (pH 7.7) and filtration through 0.3% polyethylenimine-soaked Unifilter plates (Packard). These filters were washed 4 additional times with 2 mL of ice-cold 50 mM Tris-HCl and dried for 1 hour. Radioactivity was determined using liquid scintillation counting techniques. Results were analyzed by Hill transformation and Ki values were determined using the Cheng-Prusoff equation.

[1] = male Sprague-Dawley rat brain cortical membranes, (3H)-N-α-methylhistamine ~0.6 nM, 30 minutes at 25° C., Cheng-Prusoff equation, read-out: Ki

T1 sequence (Q9QYN8 whole entry): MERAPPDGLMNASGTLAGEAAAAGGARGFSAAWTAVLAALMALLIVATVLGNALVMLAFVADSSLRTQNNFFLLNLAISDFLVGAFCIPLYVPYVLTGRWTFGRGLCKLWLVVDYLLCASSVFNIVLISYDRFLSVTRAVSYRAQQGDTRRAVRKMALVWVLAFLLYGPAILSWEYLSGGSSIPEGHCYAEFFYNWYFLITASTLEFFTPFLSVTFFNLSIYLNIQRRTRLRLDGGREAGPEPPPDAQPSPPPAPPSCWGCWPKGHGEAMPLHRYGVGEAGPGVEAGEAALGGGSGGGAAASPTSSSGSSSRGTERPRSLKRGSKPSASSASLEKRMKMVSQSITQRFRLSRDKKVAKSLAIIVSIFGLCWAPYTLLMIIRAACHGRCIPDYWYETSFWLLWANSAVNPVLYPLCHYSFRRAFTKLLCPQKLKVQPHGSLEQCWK

Ki [1]	Compound	Ki
19.3 nM	4-(2-{2-[(2R,6S)-2,6-dimethylpiperidinyl]ethyl}-1-benzofuran-5-yl)benzonitrile [Example 11]	
8.46 nM	4-[4-(2-{2-[(2R,6S)-2,6-dimethylpiperidinyl]ethyl}-1-benzofuran-5-yl)benzoyl]morpholine [Example 29]	
49.4 nM	CCN(CC)CCc1cc2cc(-c3ccc(C#N)cc3)ccc2o1 [Example 5, 4-{2-[2-(diethylamino)ethyl]-1-benzofuran-5-yl}benzonitrile]	
94.9 nM	N#Cc1ccc(-c2ccc3oc(CCN4CC[C@@H](O)C4)cc3c2)cc1 [Example 7, 4-(2-{2-[(3R)-3-hydroxypyrrolidinyl]ethyl}-1-benzofuran-5-yl)benzonitrile]	
	CN(C)[C@H]1CCN(CCc2cc3cc(-c4ccc(C#N)cc4)ccc3o2)C1 [Example 9, 4-(2-{2-[(3S)-3-(dimethylamino)pyrrolidinyl]ethyl}-1-benzofuran-5-yl)benzonitrile]	136 nM
38.4 nM	C[C@@H]1CC[C@@H](C)N1CCc1cc2cc(-c3ccc(C#N)cc3)ccc2o1 [Example 12, 4-(2-{2-[(2R,5R)-2,5-dimethylpyrrolidinyl]ethyl}-1-benzofuran-5-yl)benzonitrile]	
25.1 nM	CC1CCN(CCc2cc3cc(-c4ccc(C#N)cc4)ccc3o2)CC1 [Example 14, 4-{2-[2-(4-methyl-1-piperidinyl)ethyl]-1-benzofuran-5-yl}benzonitrile]	
1000 nM	COC(=O)[C@@H]1CCCN1CCc1cc2cc(-c3ccc(C#N)cc3)ccc2o1 [Example 15, 4-(2-{2-[2-pyrrolidinemethyl carboxylate]ethyl}-1-benzofuran-5-yl)benzonitrile]	
92.2 nM	N#Cc1ccc(-c2ccc3oc(CCN4CC=CCC4)cc3c2)cc1 [Example 16, 4-{2-[2-(3,6-dihydro-1(2H)-pyridinyl)ethyl]-1-benzofuran-5-yl}benzonitrile]	
60.5 nM	CN(CCc1cc2cc(-c3ccc(C#N)cc3)ccc2o1)C(C)(C)C [Example 18, 4-(2-{2-[tert-butyl (methyl)amino]ethyl}-1-benzofuran-5-yl)benzonitrile]	
77.7 nM	CC(C)N(C)CCc1cc2cc(-c3ccc(C#N)cc3)ccc2o1 [Example 19, 4-(2-{2-[isopropyl(methyl)amino]ethyl}-1-benzofuran-5-yl)benzonitrile]	
180 nM	CC(C)CN(C)CCc1cc2cc(-c3ccc(C#N)cc3)ccc2o1 [Example 20, 4-(2-{2-[isobutyl(methyl)amino]ethyl}-1-benzofuran-5-yl)benzonitrile]	
44.4 nM	CCN(CCc1cc2cc(-c3ccc(C#N)cc3)ccc2o1)C(C)C [Example 21, 4-(2-{2-[ethyl(isopropyl)amino]ethyl}-1-benzofuran-5-yl)benzonitrile]	
69.2 nM	CCCN(CC)CCc1cc2cc(-c3ccc(C#N)cc3)ccc2o1 [Example 22, 4-(2-{2-[ethyl(propyl)amino]ethyl}-1-benzofuran-5-yl)benzonitrile]	
1.97 nM	CC1CCCN1CCc1cc2cc(-c3ccc(C(=O)N4CCOCC4)cc3)ccc2o1 (stereo not drawn) [Example 23, 4-(4-{2-[2-(2-methyl-1-pyrrolidinyl)ethyl]-1-benzofuran-5-yl}benzoyl)morpholine]	
11.7 nM	O=C(c1ccc(-c2ccc3oc(CCN4CCCCC4)cc3c2)cc1)N1CCOCC1 [Example 24, 4-(4-{2-[2-(1-piperidinyl)ethyl]-1-benzofuran-5-yl}benzoyl)morpholine]	
14.4 nM	CCN(CC)CCc1cc2cc(-c3ccc(C(=O)N4CCOCC4)cc3)ccc2o1 [Example 25, N,N-diethyl-N-(2-{5-[4-(4-morpholinylcarbonyl)phenyl]-1-benzofuran-2-yl}ethyl)amine]	
27.2 nM	CC1CCCCN1CCc1cc2cc(-c3ccc(C(=O)N4CCOCC4)cc3)ccc2o1 (stereo not drawn) [Example 26, 4-(4-{2-[2-(2-methyl1--piperidinyl)ethyl]-1-benzofuran-5-yl}benzoyl)morpholine]	
55.4 nM	O=C(c1ccc(-c2ccc3oc(CCN4CC[C@@H](O)C4)cc3c2)cc1)N1CCOCC1 [Example 27, (3R)-1-(2-{5-[4-(4-morpholinylcarbonyl)phenyl]-1-benzofuran-2-yl}ethyl)-3-pyrrolidinol]	
265 nM	O=C(c1ccc(-c2ccc3oc(CCN4CCOCC4)cc3c2)cc1)N1CCOCC1 [Example 32, 4-(4-{2-[2-(4-morpholine)ethyl]-1-benzofuran-5-yl}benzoyl)morpholine]	

Ki [1]	Compound	Ki
32.3 nM	O=C(c1ccc(-c2ccc3oc(CCN4CC=CCC4)cc3c2)cc1)N1CCOCC1 [Example 33, 4-(4-{2-[2-(3,6-dihydro-1(2H)-pyridinyl)ethyl]-1-benzofuran-5-yl}benzoyl)morpholine]	
67.9 nM	CN(CCc1cc2cc(-c3ccc(C(=O)N4CCOCC4)cc3)ccc2o1)C(C)(C)C [Example 35, N-(tert-butyl)-N-methyl-N-(2-{5-[4-(4-morpholinylcarbonyl)phenyl]-1-benzofuran-2-yl}ethyl)amine]	
52.1 nM	CC(C)N(C)CCc1cc2cc(-c3ccc(C(=O)N4CCOCC4)cc3)ccc2o1 [Example 36, N-isopropyl-N-methyl-N-(2-{5-[4-(4-morpholinylcarbonyl)phenyl]-1-benzofuran-2-yl}ethyl)amine]	
248 nM	CC(C)CN(C)CCc1cc2cc(-c3ccc(C(=O)N4CCOCC4)cc3)ccc2o1 [Example 37, N-isobutyl-N-methyl-N-(2-{5-[4-(4-morpholinylcarbonyl)phenyl]-1-benzofuran-2-yl}ethyl)amine]	
26 nM	CCN(CCc1cc2cc(-c3ccc(C(=O)N4CCOCC4)cc3)ccc2o1)C(C)C [Example 38, N-ethyl-N-isopropyl-N-(2-{5-[4-(4-morpholinylcarbonyl)phenyl]-1-benzofuran-2-yl}ethyl)amine]	
148 nM	CN(C)CCc1cc2cc(-c3ccc(C(=O)N4CCOCC4)cc3)ccc2o1 [Example 39, N,N-dimethyl-N-(2-{5-[4-(4-morpholinylcarbonyl)phenyl]-1-benzofuran-2-yl}ethyl)amine]	
32.2 nM	CCCN(CC)CCc1cc2cc(-c3ccc(C(=O)N4CCOCC4)cc3)ccc2o1 [Example 40, N-ethyl-N-(2-{5-[4-(4-morpholinylcarbonyl)phenyl]-1-benzofuran-2-yl}ethyl)-N-propylamine]	
51.5 nM	Cc1c(CCN2CCCC2)c(=O)oc2ccc(-c3ccc(C#N)cc3)cc12 [Example 41, 4-{4-methyl-2-oxo-3-[2-(1-pyrolidinyl)ethyl]-2H-chromen-6-yl}benzonitrile]	
41.8 nM	Cc1c(CCN2CCCCC2)c(=O)oc2ccc(-c3ccc(C#N)cc3)cc12 [Example 42, 4-{4-methyl-2-oxo-3-[2-(1-piperidinyl)ethyl]-2H-chromen-6-yl}benzonitrile]	
14.6 nM	CCN(CC)CCc1c(C)c2cc(-c3ccc(C#N)cc3)ccc2oc1=O [Example 43, 4-{3-[2-(diethylamino)ethyl]-4-methyl-2-oxo-2H-chromen-6-yl}benzonitrile]	
17.2 nM	O=C(c1ccc(-c2ccc3oc(CCN4CCCC4)cc3c2)nc1)N1CCOCC1 [Example 44, 4-[(6-{2-[2-(1-pyrrolidinyl)ethyl]-1-benzofuran-5-yl}-3-pyridinyl)carbonyl]morpholine]	
18.5 nM	O=C(c1ccc(-c2ccc3oc(CCN4CCCCC4)cc3c2)nc1)N1CCOCC1 [Example 46, 4-[(6-{2-[2-(1-piperidinyl)ethyl]-1-benzofuran-5-yl}-3-pyridinyl)carbonyl]morpholine]	
59.8 nM	CCN(CC)CCc1cc2cc(-c3ccc(C(=O)N4CCOCC4)cn3)ccc2o1 [Example 47, 4-[(6-{2-[2-(N,N-diethyl)ethyl]-1-benzofuran-5-yl}-3-pyridinyl)carbonyl]morpholine]	
14.4 nM	C[C@@H]1CC[C@@H](C)N1CCc1cc2cc(-c3ccc(C(=O)N4CCOCC4)cn3)ccc2o1 [Example 49, 4-{[6-(2-{2-[(2R,5R)-2,5-dimethylpyrrolidinyl]ethyl}-1-benzofuran-5-yl)-3-pyridinyl]carbonyl}morpholine]	
3.07 nM	O=C(c1ccc(-c2ccc3oc(CCN4CCCCCC4)cc3c2)nc1)N1CCOCC1 [Example 51, 4-{[6-(2-{2-[1-azepanyl]ethyl}-1-benzofuran-5-yl)-3-pyridinyl]carbonyl}morpholine]	
162 nM	CC1CCN(CCc2cc3cc(-c4ccc(C(=O)N5CCOCC5)cn4)ccc3o2)CC1 [Example 52, 4-[(6-{2-[2-(4-methyl-1-piperidinyl)ethyl]-1-benzofuran-5-yl}-3-pyridinyl)carbonyl]morpholine]	
242 nM	O=C(c1ccc(-c2ccc3oc(CCN4CCOCC4)cc3c2)nc1)N1CCOCC1 [Example 53, 4-[(6-{2-[2-(4-morpholinyl)ethyl]-1-benzofuran-5-yl}-3-pyridinyl)carbonyl]morpholine]	
197 nM	CN(CCc1cc2cc(-c3ccc(C(=O)N4CCOCC4)cn3)ccc2o1)C(C)(C)C [Example 54, N-(tert-butyl)-N-methyl-N-(2-{5-[5-(4-morpholinylcarbonyl)-2-pyridinyl]-1-benzofuran-2-yl}ethyl)amine]	
575 nM	CC(C)CN(C)CCc1cc2cc(-c3ccc(C(=O)N4CCOCC4)cn3)ccc2o1 [Example 55, N-isobutyl-N-methyl-N-(2-{5-[5-(4-morpholinylcarbonyl)-2-pyridinyl]-1-benzofuran-2yl}ethyl)amine]	
